Source: patent US8575201B2 (Boehringer Ingelheim International GmbH, priority 2010, dated 2013)

What was measured:
[1] = target: recombinant human FLAP protein (Homo sapiens (Human), UniProt P20292); assay: FLAP binding assay (Scintillation Proximity Assay, displacement of [125I]L-691,831); conditions: read-out: FLAP SPA IC50
Experimental: Assessment of Biological Properties 1. Binding Assay: Compounds are assessed for the ability to bind to FLAP in a binding assay that measures compound-specific displacement of an iodinated (^125I) FLAP inhibitor via a Scintillation Proximity Assay format (adapted from S. Charleson et al., Mol. Pharmacol., 1992, 41, 873-879). […] The cells are lysed with a Dounce homogenizer and the material is centrifuged at 10,000×g for 10 minutes. The supernatant is then collected and centrifuged at 100,000×g for 60 minutes. To prepare membrane protein for an assay, an aliquot of the 100,000×g pellet is resuspended in 1 ml of buffer A, Dounce homogenized, and finally subjected to polytron mixing (30 seconds). […] Mol. Pharmacol., 41, 873-879, 1992) and finally 50 μl of the bead/protein mixture. (final concentrations: beads, 200 μg/well; protein, 5 μg/well; […] The plates are shaken for 2 h before reading on a Microbeta plate reader.

[2] = tested on: synthesis of LTB4 in human whole blood; assay: Human whole blood LTB4 production inhibition assay; type: cell-based; conditions: calcimycin stimulated, read-out: hWB LTB4 IC50
Experimental: Compounds are additionally tested in a human whole blood assay to determine their ability to inhibit the synthesis of LTB4 in a cellular system. Compounds are combined with heparinized human whole blood and incubated for 15 minutes at 37° C. Calcimycin (20 μM final, prepared in phosphate-buffered saline, pH 7.4) is then added and the mixture is incubated for another 30 minutes at 37° C. The samples are centrifuged for 5 min at low speed (1500×g) and the plasma layer is removed. Plasma LTB4 concentrations are then measured using an antibody-based homogenous time-resolved fluorescence method (CisBio, Bedford, Mass.).

Sequence of recombinant human FLAP protein (P20292 whole entry): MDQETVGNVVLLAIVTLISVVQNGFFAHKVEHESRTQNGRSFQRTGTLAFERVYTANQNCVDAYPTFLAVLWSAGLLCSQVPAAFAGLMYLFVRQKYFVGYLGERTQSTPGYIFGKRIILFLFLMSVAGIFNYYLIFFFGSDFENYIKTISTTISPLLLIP

5-(6-{1-[5-(3-methyl- 1H-pyrazol-4-yl)-1,2,4- oxadiazol-3- yl]cyclobutyl}pyridin-3- yl)pyrimidin-2-amine [Example 135]
IC50 [1]: 0.027 µM
IC50 [2]: 0.4 µM

CC(C)(C)OC(=O)N1CCN(c2ccc(-c3nc(C4(c5ccc(-c6cnc(N)nc6)nc5)CCC4)no3)cn2)CC1 [Example 1, tert-butyl 4-[5-(3-{1-[6-(2-aminopyrimidin-5-yl)pyridin-3-yl]cyclobutyl}-1,2,4-oxadiazol-5-yl)pyridin-2-yl]piperazine-1-carboxylate]
IC50 [1]: 0.0038 µM
IC50 [2]: 0.28 µM

NC(=O)CNc1ccc(-c2nc(C3(c4ccc(-c5cnc(N)nc5)nc4)CCC3)no2)cn1 [Example 2, N-2-[5-(3-{1-[6-(2-aminopyrimidin-5-yl)pyridin-3-yl]cyclobutyl}-1,2,4-oxadiazol-5-yl)pyridin-2-yl]glycinamide]
IC50 [1]: 0.005 µM
IC50 [2]: 0.74 µM

Nc1ncc(-c2ccc(C3(c4noc(-c5ccc(N6CCNCC6)nc5)n4)CCC3)cn2)cn1 [Example 3, 5-[5-(1-{5-[6-(piperazin-1-yl)pyridin-3-yl]-1,2,4-oxadiazol-3-yl}cyclobutyl)pyridin-2-yl]pyrimidin-2-amine]
IC50 [1]: 0.0027 µM
IC50 [2]: 0.15 µM

Nc1ncc(-c2ccc(C3(c4noc(-c5cc[nH]n5)n4)CCC3)cn2)cn1 [Example 4, 5-(5-{1-[5-(1H-pyrazol-3-yl)-1,2,4-oxadiazol-3-yl]cyclobutyl}pyridin-2-yl)pyrimidin-2-amine]
IC50 [1]: 0.017 µM
IC50 [2]: 0.43 µM

Cc1cccc(-c2nc(C3(c4ccc(-c5cnc(N)nc5)nc4)CCC3)no2)c1 [Example 5, 5-(5-{1-[5-(3-methylphenyl)-1,2,4-oxadiazol-3-yl]cyclobutyl}pyridin-2-yl)pyrimidin-2-amine]
IC50 [1]: 0.0088 µM
IC50 [2]: 1.1 µM

Cc1ccc(-c2nc(C3(c4ccc(-c5cnc(N)nc5)nc4)CCC3)no2)cc1 [Example 6, 5-(5-{1-[5-(4-methylphenyl)-1,2,4-oxadiazol-3-yl]cyclobutyl}pyridin-2-yl)pyrimidin-2-amine]
IC50 [1]: 0.0058 µM
IC50 [2]: 0.83 µM

CS(=O)(=O)c1ccc(-c2nc(C3(c4ccc(-c5cnc(N)nc5)nc4)CCC3)no2)cc1 [Example 7, 5-[5-(1-{5-[4-(methylsulfonyl)phenyl]-1,2,4-oxadiazol-3-yl}cyclobutyl)pyridin-2-yl]pyrimidin-2-amine]
IC50 [1]: 0.011 µM
IC50 [2]: 0.69 µM

CCNc1ccc(-c2nc(C3(c4ccc(-c5cnc(N)nc5)nc4)CCC3)no2)cn1 [Example 8, 5-[5-(1-{5-[6-(ethylamino)pyridin-3-yl]-1,2,4-oxadiazol-3-yl}cyclobutyl)pyridin-2-yl]pyrimidin-2-amine]
IC50 [1]: 0.002 µM
IC50 [2]: 0.11 µM

Nc1ncc(-c2ccc(C3(c4noc(-c5ccc(NC6CC6)nc5)n4)CCC3)cn2)cn1 [Example 9, 5-[5-(1-{5-[6-(cyclopropylamino)pyridin-3-yl]-1,2,4-oxadiazol-3-yl}cyclobutyl)pyridin-2-yl]pyrimidin-2-amine]
IC50 [1]: 0.0029 µM
IC50 [2]: 0.32 µM

Nc1ncc(-c2ccc(C3(c4noc(-c5cc(N)[nH]n5)n4)CCC3)cn2)cn1 [Example 10, 5-(5-{1-[5-(5-amino-1H-pyrazol-3-yl)-1,2,4-oxadiazol-3-yl]cyclobutyl}pyridin-2-yl)pyrimidin-2-amine]
IC50 [1]: 0.03 µM
IC50 [2]: 0.65 µM

CS(=O)(=O)c1cccc(-c2nc(C3(c4ccc(-c5cnc(N)nc5)nc4)CCC3)no2)c1 [Example 11, 5-[5-(1-{5-[3-(methylsulfonyl)phenyl]-1,2,4-oxadiazol-3-yl}cyclobutyl)pyridin-2-yl]pyrimidin-2-amine]
IC50 [1]: 0.078 µM
IC50 [2]: 2.2 µM

CC(C)(O)CNc1ccc(-c2nc(C3(c4ccc(-c5cnc(N)nc5)nc4)CCC3)no2)cn1 [Example 12, 1-{[5-(3-{1-[6-(2-aminopyrimidin-5-yl)pyridin-3-yl]cyclobutyl}-1,2,4-oxadiazol-5-yl)pyridin-2-yl]amino}-2-methylpropan-2-ol]
IC50 [1]: 0.0021 µM
IC50 [2]: 0.14 µM

CCOC(=O)CNc1ccc(-c2nc(C3(c4ccc(-c5cnc(N)nc5)nc4)CCC3)no2)cn1 [Example 13, ethyl N-[5-(3-{1-[6-(2-aminopyrimidin-5-yl)pyridin-3-yl]cyclobutyl}-1,2,4-oxadiazol-5-yl)pyridin-2-yl]glycinate]
IC50 [1]: 0.0039 µM
IC50 [2]: 0.17 µM

Nc1ncc(-c2ccc(C3(c4noc(-c5c[nH]nn5)n4)CCC3)cn2)cn1 [Example 14, 5-(5-{1-[5-(1H-1,2,3-triazol-4-yl)-1,2,4-oxadiazol-3-yl]cyclobutyl}pyridin-2-yl)pyrimidin-2-amine]
IC50 [1]: 0.14 µM
IC50 [2]: > 5 µM

CN(C)c1nc(C2(c3ccc(-c4cnc(N)nc4)nc3)CCC2)no1 [Example 15, 5-(5-{1-[5-(dimethylamino)-1,2,4-oxadiazol-3-yl]cyclobutyl}pyridin-2-yl)pyrimidin-2-amine]
IC50 [1]: 0.28 µM
IC50 [2]: 2.6 µM

Nc1ncc(-c2ccc(C3(c4noc(-c5ccc(NCC(=O)O)nc5)n4)CCC3)cn2)cn1 [Example 16, N-[5-(3-{1-[6-(2-aminopyrimidin-5-yl)pyridin-3-yl]cyclobutyl}-1,2,4-oxadiazol-5-yl)pyridin-2-yl]glycine]
IC50 [1]: 0.011 µM
IC50 [2]: 2.2 µM

COCCn1cc(-c2nc(C3(c4ccc(-c5cnc(N)nc5)nc4)CCC3)no2)cn1 [Example 28, 5-[5-(1-{5-[1-(2-methoxyethyl)-1H-pyrazol-4-yl]-1,2,4-oxadiazol-3-yl}cyclobutyl)pyridin-2-yl]pyrimidin-2-amine]
IC50 [2]: 0.21 µM

COC(=O)[C@@H]1CN(c2ccc(-c3nc(C4(c5ccc(-c6cnc(N)nc6)nc5)CCC4)no3)cn2)CCN1 [Example 39, methyl (2S)-[5-(3-{1-[6-(2-aminopyrimidin-5-yl)pyridin-3-yl]cyclobutyl}-1,2,4-oxadiazol-5-yl)pyridin-2-yl]piperazine-2-carboxylate]
IC50 [2]: 0.086 µM

COCCNc1cnc(-c2nc(C3(c4ccc(-c5cnc(N)nc5)nc4)CCC3)no2)cn1 [Example 56, 5-{5-[1-(5-{5-[(2-methoxyethyl)amino]pyrazin-2-yl}-1,2,4-oxadiazol-3-yl)cyclobutyl]pyridin-2-yl}pyrimidin-2-amine]
IC50 [2]: 0.024 µM

CCNc1cnc(-c2nc(C3(c4ccc(-c5cnc(N)nc5)nc4)CCC3)no2)cn1 [Example 57, 5-[5-(1-{5-[5-(ethylamino)pyrazin-2-yl]-1,2,4-oxadiazol-3-yl}cyclobutyl)pyridin-2-yl]pyrimidin-2-amine]
IC50 [2]: 0.034 µM

CN1CCN(c2cnc(-c3nc(C4(c5ccc(-c6cnc(N)nc6)nc5)CCC4)no3)cn2)CC1 [Example 61, 5-[5-(1-{5-[5-(4-methylpiperazin-1-yl)pyrazin-2-yl]-1,2,4-oxadiazol-3-yl}cyclobutyl)pyridin-2-yl]pyrimidin-2-amine]
IC50 [2]: 0.041 µM

Nc1ncc(-c2ccc(C3(c4noc(-c5ccc6[nH]ncc6c5)n4)CCC3)cn2)cn1 [Example 79, 5-(5-{1-[5-(1H-indazol-5-yl)-1,2,4-oxadiazol-3-yl]cyclobutyl}pyridin-2-yl)pyrimidin-2-amine]
IC50 [2]: 0.068 µM

CC(C)(C)NC(=O)Cn1cc(-c2nc(C3(c4ccc(-c5cnc(N)nc5)nc4)CCC3)no2)cn1 [Example 144, 2-[4-(3-{1-[6-(2-aminopyrimidin-5-yl)pyridin-3-yl]cyclobutyl}-1,2,4-oxadiazol-5-yl)-1H-pyrazol-1-yl]-N-tert-butylacetamide]
IC50 [2]: 0.19 µM

CCNC(=O)Cn1cc(-c2nc(C3(c4ccc(-c5cnc(N)nc5)nc4)CCC3)no2)cn1 [Example 158, 2-[4-(3-{1-[6-(2-amino-pyrimidin-5-yl)-pyridin-3-yl]-cyclobutyl}-[1,2,4]oxadiazol-5-yl)-pyrazol-1-yl]-N-ethyl-acetamide]
IC50 [2]: 0.55 µM

Cc1nc(N)cnc1-c1ccc(C2(c3noc(-c4cnn(C5COC5)c4)n3)CCC2)cn1 [Example 169, 6-Methyl-5-(5-{1-[5-(1-oxetan-3-yl-1H-pyrazol-4-yl)-[1,2,4]oxadiazol-3-yl]-cyclobutyl}-pyridin-2-yl)-pyrazin-2-ylamine]
IC50 [2]: 0.021 µM

N#CCn1cc(-c2nc(C3(c4ccc(-c5cnc(N)cn5)nc4)CCC3)no2)cn1 [Example 170, [4-(3-{1-[6-(5-Amino-pyrazin-2-yl)-pyridin-3-yl]-cyclobutyl}-[1,2,4]oxadiazol-5-yl)-pyrazol-1-yl]-acetonitrile]
IC50 [2]: 0.051 µM

Cc1nc(N)cnc1-c1ccc(C2(c3noc(-c4cnn(CC(C)(C)O)c4)n3)CCC2)cn1 [Example 172, 1-[4-(3-{1-[6-(5-Amino-3-methyl-pyrazin-2-yl)-pyridin-3-yl]-cyclobutyl}-[1,2,4]oxadiazol-5-yl)-pyrazol-1-yl]-2-methyl-propan-2-ol]
IC50 [2]: 0.051 µM

CNc1cnc(-c2ccc(C3(c4noc(-c5cnn(CC#N)c5)n4)CCC3)cn2)cn1 [Example 173, [4-(3-{1-[6-(5-Methylamino-pyrazin-2-yl)-pyridin-3-yl]-cyclobutyl}-[1,2,4]oxadiazol-5-yl)-pyrazol-1-yl]-acetonitrile]
IC50 [2]: 0.018 µM
